Experimental data from patent US20070179060A1, “6-(Poly-substituted aryl)-4-aminopicolinates and their use as herbicides” (priority 2006, published 2007).

Assays:
[1] = tested on: lambsquarter (Chenopodium album); test: Postemergence herbicidal activity; assay type: in vivo; settings: Chenopodium album, post-emergence, 336 h, post-emergent, 140 g ai/ha, after 14 days; read-out: % Control CHEAL
Procedure, shortened: (§1)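 Compounds were applied postemergence by track sprayer delivering 187 L/ha, using a mixed organic/aqueous carrier containing crop oil concentrate and surfactant; solvent-blank sprays served as controls. Test plants were at the first to second true leaf stage after 7-21 days' greenhouse growth, were sub-irrigated after treatment, and were evaluated by probit analysis.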

[2] = tested on: redroot pigweed (Amaranthus retroflexus); test: Postemergence herbicidal activity; assay type: in vivo; settings: Amaranthus retroflexus, post-emergence, 336 h, post-emergent, 140 g ai/ha, after 14 days; read-out: % Control AMARE
Procedure, shortened: as §1

[3] = tested on: velvetleaf (Abutilon theophrasti); test: Postemergence herbicidal activity; assay type: in vivo; settings: Abutilon theophrasti, post-emergence, 336 h, post-emergent, 140 g ai/ha, after 14 days; read-out: % Control ABUTH
Procedure, shortened: as §1

Cyperus difformis = test: Herbicidal activity in transplanted paddy rice; assay type: in vivo; settings: paddy water application, after 3 weeks; for pest or weed control at 17.5 g/ha: 17.5 g ai/ha; for pest or weed control at 70 g/ha: 70 g ai/ha
Method: (§2) Weed seeds or nutlets of the desired test plant species were planted in puddled soil (mud) prepared by mixing a non-sterilized mineral soil (28 percent silt, 18 percent clay, and 54 percent sand, with a pH of about 7.3 to 7.8 and an organic matter content of about 1.0 percent) and water at a ratio of 100 kg of soil to 19 L of water. The prepared mud was dispensed in 250 mL aliquots into 480 mL non-perforated plastic pots with a surface area of 91.6 square centimeters leaving a headspace of 3 centimeters in each pot. […] Seedlings at the second or third leaf stage of growth were transplanted into 650 mL of mud contained in 960 mL non-perforated plastic pots with a surface area of 91.6 square centimeters 4 days prior to herbicide application. The paddy was created by filling the 3 centimeter headspace of the pots with water. When required to ensure good germination and healthy plants, a fungicide treatment and/or other chemical or physical treatment was applied. The plants were grown for 4-14 days in a greenhouse with an approximate 14 hour photoperiod which was maintained at about 29° C. during the day and 26° C. during the night. Nutrients were added as Osmocote (17:6:10, N:P:K+minor nutrients) at 2 g per pot. Water was added on a regular basis to maintain the paddy flood, and supplemental lighting was provided with overhead metal halide 1000-Watt lamps as necessary. The plants were employed for testing when they reached the second or third true leaf stage. A weighed amount, determined by the highest rate to be tested, of each test compound was placed in a 120 mL glass vial and was dissolved in 20 mL of acetone to obtain concentrated stock solutions. […] Application rates of ½×, ¼×, ⅛× and 1/16× of the high rate were obtained by injecting an appropriate amount of the stock solution into the aqueous layer of the paddy. Control plants were treated in the same manner with the solvent blank. The treated plants and control plants were placed in a greenhouse as described above and water was added as needed to maintain a paddy flood.

Echinochloa crus-galli = test: Herbicidal activity in transplanted paddy rice; assay type: in vivo; settings: paddy water application, after 3 weeks; for pest or weed control at 17.5 g/ha: 17.5 g ai/ha; for pest or weed control at 70 g/ha: 70 g ai/ha
Method: as §2

Monochoria vaginalis = test: Herbicidal activity in transplanted paddy rice; assay type: in vivo; settings: paddy water application, after 3 weeks; for pest or weed control at 17.5 g/ha: 17.5 g ai/ha; for pest or weed control at 70 g/ha: 70 g ai/ha
Method: as §2

Scirpus juncoides = test: Herbicidal activity in transplanted paddy rice; assay type: in vivo; settings: paddy water application, after 3 weeks; for pest or weed control at 17.5 g/ha: 17.5 g ai/ha; for pest or weed control at 70 g/ha: 70 g ai/ha
Method: as §2

[4] = tested on: rice (Orysa sativa var. Japonica); test: Herbicidal activity in transplanted paddy rice; assay type: in vivo; settings: transplant rice (crop), paddy water application, after 3 weeks; for pest or weed control at 17.5 g/ha: 17.5 g ai/ha; for pest or weed control at 70 g/ha: 70 g ai/ha
Method: as §2

[5] = tested on: lambsquarter (Chenopodium album); test: Preemergence herbicidal activity; assay type: in vivo; settings: Chenopodium album, pre-emergence, 480 h; pre-emergent, 140 g ai/ha, after 20-22 days; read-out: % Control CHEAL
Procedure, shortened: (§3)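 Seeds sown in 70:30 loam (pH about 8.1, about 1.5% organic matter) and sand mix, then sprayed preemergence at 187 L/ha with a track sprayer; controls received solvent blank. Pots kept in greenhouse, about 15 h photoperiod, about 23-29° C. day and 22-28° C. night, top-irrigated.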

[6] = tested on: redroot pigweed (Amaranthus retroflexus); test: Preemergence herbicidal activity; assay type: in vivo; settings: Amaranthus retroflexus, pre-emergence, 480 h; pre-emergent, 140 g ai/ha, after 20-22 days; read-out: % Control AMARE
Procedure, shortened: as §3

[7] = tested on: velvetleaf (Abutilon theophrasti); test: Preemergence herbicidal activity; assay type: in vivo; settings: Abutilon theophrasti, pre-emergence, 480 h; pre-emergent, 140 g ai/ha, after 20-22 days; read-out: % Control ABUTH
Procedure, shortened: as §3

[8] = Cyperus difformis, 504 h, read-out: % Control CYPDI
[9] = Echinochloa crus-galli, 504 h, read-out: % Control ECHCG
[10] = Pontederia vaginalis, 504 h, read-out: % Control MOOVA
[11] = Schoenoplectiella juncoides, 504 h, read-out: % Control SCPJU

melting point	SMILES	pest or weed control at 140 g/ha [1] [%]	pest or weed control at 140 g/ha [2] [%]	pest or weed control at 140 g/ha [3] [%]	pest or weed control at 70 g/ha (Cyperus difformis; [8]) [%]	pest or weed control at 70 g/ha (Echinochloa crus-galli; [9]) [%]	pest or weed control at 70 g/ha (Monochoria vaginalis; [10]) [%]	pest or weed control at 70 g/ha (Scirpus juncoides; [11]) [%]	pest or weed control at 70 g/ha ([4]; Oryza sativa, 504 h) [%]	pest or weed control at 140 g/ha [5] [%]	pest or weed control at 140 g/ha [6] [%]	pest or weed control at 140 g/ha [7] [%]	further results
145 to 146 °C	COC(=O)c1nc(-c2ccc(Cl)c(C(F)F)c2F)cc(N)c1Cl [Compound 4, 4-Amino-3-chloro-6-(4-chloro-2-fluoro-3-difluoromethylphenyl)pyridine-2-carboxylic acid methyl ester]	85	100	100	–	–	–	–	–	–	–	–	pest or weed control at 17.5 g/ha (Cyperus difformis; [8]): 95%; pest or weed control at 17.5 g/ha (Echinochloa crus-galli; [9]): 0%; pest or weed control at 17.5 g/ha (Monochoria vaginalis; [10]): 100%; pest or weed control at 17.5 g/ha (Scirpus juncoides; [11]): 70%; pest or weed control at 17.5 g/ha ([4]; Oryza sativa, 504 h): 0%
–	COC(=O)c1nc(-c2ccc(Cl)c(CF)c2F)cc(N)c1Cl [Compound 5, 4-Amino-3-chloro-6-(4-chloro-2-fluoro-3-fluoromethylphenyl)pyridine-2-carboxylic acid methyl ester]	90	35	100	100	20	100	90	0	–	–	–	–
132 to 133 °C	CCOc1c(Cl)ccc(-c2cc(N)c(Cl)c(C(=O)OC)n2)c1Cl [Compound 7, 4-Amino-3-chloro-6-(2,4-dichloro-3-ethoxyphenyl)pyridine-2-carboxylic acid methyl ester]	95	90	100	100	100	100	85	10	–	–	–	–
154 to 156 °C	CCOc1c(Cl)ccc(-c2cc(N)c(Cl)c(C(=O)OC)n2)c1F [Compound 41, 4-amino-3-chloro-6-(4-chloro-2-fluoro-3-ethoxyphenyl)-pyridine-2-carboxylic acid methyl ester]	98	85	95	–	–	–	–	–	90	50	80	pest or weed control at 17.5 g/ha (Cyperus difformis; [8]): 100%; pest or weed control at 17.5 g/ha (Echinochloa crus-galli; [9]): 50%; pest or weed control at 17.5 g/ha (Monochoria vaginalis; [10]): 100%; pest or weed control at 17.5 g/ha (Scirpus juncoides; [11]): 90%; pest or weed control at 17.5 g/ha ([4]; Oryza sativa, 504 h): 10%
139 to 141 °C	COC(=O)c1nc(-c2ccc3c(c2F)OCO3)cc(N)c1Cl [Compound 46, 4-Amino-3-chloro-6-(2-fluoro-3,4 methylenedioxyphenyl)pyridine-2-carboxylic acid methyl ester]	95	100	100	–	–	–	–	–	–	–	–	pest or weed control at 35 g/ha (Cyperus difformis; Cyperus difformis, 504 h, 35 g ai/ha, read-out: % Control CYPDI): 100%; pest or weed control at 35 g/ha (Echinochloa crus-galli; Echinochloa crus-galli, 504 h, 35 g ai/ha, read-out: % Control ECHCG): 20%; pest or weed control at 35 g/ha (Monochoria vaginalis; Pontederia vaginalis, 504 h, 35 g ai/ha, read-out: % Control MOOVA): 100%; pest or weed control at 35 g/ha (Scirpus juncoides; Schoenoplectiella juncoides, 504 h, 35 g ai/ha, read-out: % Control SCPJU): 100%; pest or weed control at 35 g/ha ([4]; Oryza sativa, 504 h, 35 g ai/ha): 0%
154 to 155 °C	COC(=O)c1nc(-c2ccc(Br)c(OC)c2Cl)cc(N)c1Cl [Compound 52, 4-Amino-6-(4-bromo-2-chloro-3-methoxyphenyl)-3-chloropyridine-2-carboxylic acid, methyl ester]	95	100	100	100	60	99	95	0	90	100	100	–
–	CCOC(=O)c1nc(-c2ccc(Cl)c(OC)c2F)cc(N)c1Cl [Compound 86, 4-amino-3-chloro-6-(4-chloro-2-fluoro-3-methoxyphenyl)-pyridine-2-carboxylic acid, ethyl ester]	100	100	100	100	25	100	95	10	–	–	–	–
169 to 170 °C (dec.)	CC(F)c1c(Cl)ccc(-c2cc(N)cc(C(=O)O)n2)c1Cl (stereo not drawn) [Compound 125, 4-Amino-6-[2,4 dichloro-3-(1-fluoroethyl)phenyl]pyridine-2-carboxylic acid]	–	–	–	100	100	100	100	5	100	100	100	–
–	CCN(CC)CC.COc1c(Cl)ccc(-c2cc(N)c(Cl)c(C(=O)O)n2)c1Cl [Compound 136, 4-Amino-3-chloro-6-(2,4 dichloro-3-methoxyphenyl)pyridine-2-carboxylic acid, triethyl amine salt]	–	–	–	–	–	–	–	–	–	–	–	% Control CYPDI (Cyperus difformis; 35 g ai/ha): 100%; % Control ECHCG (Echinochloa crus-galli; 35 g ai/ha): 15%; % Control MOOVA (Monochoria vaginalis; 35 g ai/ha): 100%; % Control SCPJU (Scirpus juncoides; 35 g ai/ha): 80%; % Control ORYSA ([4]; 35 g ai/ha): 0%
